Measurements as given in patent US20030013660A1, “Dioxolane analogs for improved inter-cellular delivery” (Shire BioChem Inc., priority 2000, published 2003).
Several values for one entry are separate records, joined by “and”; a condition that tells them apart may be missing. Identical values can stand only once.

Legend:
MCF-7 [1] = test: 3H-TdR (3H-thymidine) incorporation assay at 72 hr; assay type: cell-based, Human; conditions: Homo sapiens, MCF7, read-out: IC50 MCF-7 24 h, 24 h drug exposure, wash, another 48 hr; 3H-TdR incorporation at 72 hr
SF-268 [2] = test: 3H-TdR (3H-thymidine) incorporation assay at 72 hr; assay type: cell-based, Human; conditions: Homo sapiens, SF-268, read-out: IC50 SF-268 24 h, 24 h drug exposure, wash, another 48 hr; 3H-TdR incorporation at 72 hr
H-460 [3] = test: 3H-TdR (3H-thymidine) incorporation assay at 72 hr; assay type: cell-based, Human; conditions: Homo sapiens, NCI-H460, read-out: IC50 H-460 24 h, 24 h drug exposure, wash, another 48 hr; 3H-TdR incorporation at 72 hr
CCRF-CEM [4] = test: MTT or WST-1 assay at 72 hr (24 hr drug exposure, wash, 48 hr); assay type: cell-based
Experimental: (§1) Exposition of 24hr to drug, washed, and incubated for another 48hr (total of 72hr assay)

CEM/dCK- [5] = test: 3H-TdR (3H-thymidine) incorporation assay at 72 hr; assay type: cell-based
Experimental: (§2) Table of IC50 Values (μM) for Controls
(§3) Exposition of 24 hr to drug, wash, incubated for another 48 hr (total of 72 hr assay)
(§4) (3H-Thymidine Incorporation Assay)

CCRF-CEM [6] = test: 3H-TdR (3H-thymidine) incorporation assay at 72 hr; assay type: cell-based; conditions: Homo sapiens, CCRF-CEM, read-out: IC50 CCRF-CEM 24 h, 24 h drug exposure, wash, another 48 hr; 3H-TdR incorporation at 72 hr
Experimental: as §2, §3, §4

MCF-7 [7] = test: MTT assay at 72 hr (24 hr drug exposure, wash, 48 hr); assay type: cell-based
Experimental: as §1

CEM/dCK- [8] = test: 3H-TdR incorporation at 72 hr (24 hr drug exposure, wash, 48 hr); assay type: cell-based; conditions: for IC50: Homo sapiens, CCRF-CEM, read-out: IC50 in μM (3H-TdR incorporation at 72 hr) CEM/dCK- 24 h, CCRF-CEM deoxycytidine kinase-deficient, 24 h drug exposure, 72 hr assay; for Factor* (Resistance Factor = Ratio of dCK- on Wild-type CCRF-CEM): ratio of IC50 CEM/dCK- to IC50 CCRF-CEM
Experimental: as §3, §4

CCRF-CEM [9] = test: as above; assay type: cell-based; conditions: read-out: IC50 in μM (3H-TdR incorporation at 72 hr) CCRF-CEM 24 h, CCRF-CEM T-cell Leukemia, 72 hr assay
Experimental: as §3, §4

H-460 [10] = test: as above; assay type: cell-based, Human; conditions: Homo sapiens, NCI-H460, read-out: IC50 in μM (3H-TdR incorporation at 72 hr) H-460 24 h, H-460 Human Lung Carcinoma, 72 hr assay
Experimental: as §3, §4

MCF-7 [11] = test: as above; assay type: cell-based, Human; conditions: Homo sapiens, MCF7, read-out: IC50 in μM (3H-TdR incorporation at 72 hr) MCF-7 24 h, MCF-7 Human Breast Carcinoma, 72 hr assay
Experimental: as §3, §4

SF-268 [12] = test: as above; assay type: cell-based, Human; conditions: Homo sapiens, SF-268, read-out: IC50 in μM (3H-TdR incorporation at 72 hr) SF-268 24 h, SF-268 Human Central Nervous System Tumor; 24 h drug exposure, 72 hr assay
Experimental: as §3, §4

CEM/dCK- [13] = test: MTT or WST-1 assay at 72 hr (24 hr drug exposure, wash, 48 hr); assay type: cell-based
Experimental: as §1

H-460 [14] = test: MTT assay at 72 hr (24 hr drug exposure, wash, 48 hr); assay type: cell-based
Experimental: as §1

SF-268 [15] = test: as above; assay type: cell-based
Experimental: as §1

[16] = Homo sapiens, CCRF-CEM, read-out: IC50 CCRF-CEM 24 h, MMT or WST-1 at 72 hr, 24 h exposure, single experiment
[17] = read-out: IC50 CCRF-CEM 24 h, MMT or WST-1 at 72 hr, 24 h exposure, single experiment
[18] = CEM/dCK- versus CCRF-CEM, single experiment
[19] = read-out: IC50 CEM/dCK- 24 h; MMT or WST-1 at 72 hr, 24 h exposure, single experiment
[20] = read-out: IC50 CEM/dCK- 24 h, MMT or WST-1 at 72 hr, 24 h exposure, single experiment

Row | IC50 (CCRF-CEM [4]; [16]) [nM] | IC50 (CEM/dCK- [8]) [µM] | IC50 (CCRF-CEM [9]; Homo sapiens, CCRF-CEM) [nM] | IC50 (H-460 [10]) [µM] | IC50 (MCF-7 [11]) [µM] | IC50 (SF-268 [12]) [µM] | SMILES | IC50 (CEM/dCK- [13]; [19]) [nM] | further results
1 | 3.4 | – | – | – | – | – | Nc1ccn([C@@H]2CO[C@H](COC(=O)C34CC5CC(CC(C5)C3)C4)O2)c(=O)n1 [Compound 110, ADAMANTANE-1-CARBOXYLIC ACID 4-(4-AMINO-2-OXO- 2H-PYRIMIDIN-1-YL)- [1,3]DIOXOLAN-2- YLMETHYL ESTER] | – | IC50 (MCF-7 [1]): 10 nM; IC50 (SF-268 [2]): 4.9 nM; IC50 (H-460 [3]): 1 nM; IC50 (CCRF-CEM [4]; [17]): 2.5 nM and 4 nM; IC50 (CEM/dCK- [5]; Homo sapiens, CCRF-CEM, read-out: IC50 CEM/dCK- 24 h, 24 h drug exposure, wash, another 48 hr, deoxycytidine kinase-deficient CCRF-CEM): 4300 nM; Factor* (Resistance Factor = Ratio of dCK- on Wild-type CCRF-CEM) (CEM/dCK- [5]; ratio of IC50 CEM/dCK- to CCRF-CEM, 24 h): 3307; IC50 (CCRF-CEM [6]): 1.3 nM
2 | – | 17 | 66 | 0.059 | 0.064 | 0.054 | COc1ccc(C(OC[C@H]2OC[C@@H](n3ccc(N)nc3=O)O2)(c2ccc(OC)cc2)c2ccc(OC)cc2)cc1 [Compound 185, 4-AMINO-1-{2-[TRIS-(4- METHOXY-PHENYL)- METHOXYMETHYL]- [1,3]DIOXOLAN-4-YL}-1H- PYRIMIDIN-2-ONE] | 12000 | IC50 (MCF-7 [7]; Homo sapiens, MCF7, read-out: IC50 MCF-7 24 h, MTT at 72 hr, 24 h exposure, single experiment): 1400 nM; IC50 (MCF-7 [7]; read-out: IC50 MCF-7 24 h, MTT at 72 hr, 24 h exposure, single experiment): 2300 nM; Factor* (Resistance Factor = Ratio of dCK- on Wild-type CCRF-CEM) (CEM/dCK- [8]): 258; Resistance Factor* (CEM/dCK- [13]; [18]): 67; IC50 (CCRF-CEM [4]; [17]): 180 nM
3 | – | > 100 | – | – | – | – | CC(C)(C)c1cc(C(=O)OC[C@H]2OC[C@@H](n3ccc(N)nc3=O)O2)cc(C(C)(C)C)c1 [Compound 186, 3,5-DI-TERT-BUTYL- BENZOIC ACID 4-(4- AMINO-2-OXO-2H- PYRIMIDIN-1-YL)- [1,3]DIOXOLAN-2- YLMETHYL ESTER] | 14000 | IC50 (CEM/dCK- [13]; [20]): 26000 nM
4 | 10 | – | – | < 0.0001 | < 0.0001 | < 0.0001 | O=C(CCCCCCCc1ccccc1)Nc1ccn([C@@H]2CO[C@H](COC(=O)CCCCCCCc3ccccc3)O2)c(=O)n1 [Compound 196, 8-PHENYL-OCTANOIC ACID 4-[2-OXO-4-(8-PHENYL- OCTANOYLAMINO)-2H- PYRIMIDIN-1-YL]- [1,3]DIOXOLAN-2-YL METHYL ESTER] | – | –
5 | – | – | < 0.1 | – | – | – | CCCCCCCCCCCC(=O)Nc1ccn([C@@H]2CO[C@H](CO)O2)c(=O)n1 [Compound 208, DODECANOIC ACID [1-(2- HYDROXYMETHYL- [1,3]DIOXOLAN-4-YL)-2- OXO-1,2-DIHYDRO- PYRIMIDIN-4-YL]-AMIDE] | – | IC50 (H-460 [14]; Homo sapiens, NCI-H460, read-out: IC50 H-460 24 h, MTT at 72 hr, 24 h exposure, single experiment): 110 nM; IC50 (H-460 [14]; read-out: IC50 H-460 24 h, MTT at 72 hr, 24 h exposure, single experiment): 200 nM; IC50 (CCRF-CEM [9]): 0.052 nM
6 | – | > 100 | – | 0.0026 | 0.005 | 0.26 | CCCCC[C@]12CC[C@](C(=O)Nc3ccn([C@@H]4CO[C@H](CO)O4)c(=O)n3)(CC1)CC2 [Compound 210, 4-Pentyl-Bicyclo[2.2.2]Octane-1-Carboxylic Acid [1-(2-Hydroxymethyl-[1,3]Dioxolan-4-Yl)-2-Oxo-1,2-Dihydro-Pyrimidin-4-Yl]-Amide] | – | IC50 (SF-268 [15]; Homo sapiens, SF-268, read-out: IC50 SF-268 24 h, MTT at 72 hr, 24 h exposure, single experiment): ≥ 100000 nM; IC50 (SF-268 [15]; read-out: IC50 SF-268 24 h, MTT at 72 hr, 24 h exposure, single experiment): > 100000 nM and 51000 nM

Row | SMILES | IC50 (CCRF-CEM [4]; [16]) [nM] | IC50 (CEM/dCK- [8]) [µM] | IC50 (CCRF-CEM [9]; Homo sapiens, CCRF-CEM) [nM] | IC50 (H-460 [10]) [µM] | IC50 (MCF-7 [11]) [µM] | IC50 (SF-268 [12]) [µM] | IC50 (CEM/dCK- [13]; [19]) [nM] | further results
7 | CC(=O)Oc1ccc(COC(=O)Nc2ccn([C@@H]3CO[C@H](COC(=O)OCc4ccc(OC(C)=O)cc4)O3)c(=O)n2)cc1 [Compound 202, Acetic acid 4-(1-{2-[4-(Acetyloxy)benzyloxycarbonyloxymethyl]-[1,3]dioxolan-4-yl}2-oxo-1,2-dihydropyrimidin-4-ylcarbamoyloxymethyl)-phenyl Ester] | 14 | – | < 0.1 | – | < 0.0001 | – | > 100 | Factor* (Resistance Factor = Ratio of dCK- on Wild-type CCRF-CEM) (CEM/dCK- [8]): >1000; Resistance Factor* (CEM/dCK- [13]; [18]): >7; IC50 (CEM/dCK- [13]; [20]): 50 nM
